Drawing on patent publication US7517889B2, “2,6-substituted-4-monosubstitutedamino-pyrimidine as prostaglandin D2 receptor antagonists” (Aventis Pharmaceuticals, Inc., priority 2004, dated 2009), this text covers IC50 for 32 molecules.

pIC50: −log10 of the molar value. Structures can show the parent of a compound that is named as a salt.

The assay deals with T1, DP receptor (Homo sapiens, UniProt Q13258).
T1 construct: the human cell line LS174T, which expresses the endogenous DP receptor; endogenous in cells; host or cells: LS174T human cell line
T1 sequence (Q13258 1-359): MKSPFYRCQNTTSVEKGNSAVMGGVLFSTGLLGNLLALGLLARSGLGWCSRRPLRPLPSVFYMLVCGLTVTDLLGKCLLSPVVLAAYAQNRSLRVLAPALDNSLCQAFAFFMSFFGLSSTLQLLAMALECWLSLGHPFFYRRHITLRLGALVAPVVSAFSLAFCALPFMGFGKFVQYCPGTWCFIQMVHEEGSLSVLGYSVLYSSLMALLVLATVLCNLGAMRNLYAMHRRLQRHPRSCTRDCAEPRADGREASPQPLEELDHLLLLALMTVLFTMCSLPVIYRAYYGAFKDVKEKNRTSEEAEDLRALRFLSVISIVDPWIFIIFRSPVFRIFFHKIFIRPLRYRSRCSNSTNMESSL
Nature of the assay: SPA cAMP assay in human LS174 T cells (human DP functional assay). Type of assay: cell-based. The note with it: inhibition of PGD2 (15 nM final) stimulated cAMP, LS174T cells expressing endogenous DP receptor. An outline of the steps:
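LS174T cells with endogenous DP receptor, 45,000/well seeded overnight, exposed to compounds at 11 points for 15 min at 37 °C in buffer containing IBMX, with PGD2 stimulation.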
A general note: Cyclic AMP is a second messenger, typically raised through Gs and lowered through Gi signalling.
For the molecule `COc1cccc(-c2cc(NCCc3c[nH]c4cc(OC)ccc34)nc(OC)n2)c1` [Example 43(g), [2-(6-Methoxy-1H-indol-3-yl)-ethyl]-[2-methoxy-6-(3-methoxy-phenyl)-pyrimidin-4-yl]-amine hydrochloride], the pIC50 (as a rule, −log10 of the IC50, conventionally taken in molar units) was 6.98. With `COc1cccc(-c2cc(NCCc3cccnc3)nc(OC)n2)c1` [Example 43(i), [2-Methoxy-6-(3-methoxy-phenyl)-pyrimidin-4-yl]-(2-pyridin-3-yl-ethyl)-amine hydrochloride] the figure was 6.61; with `COc1ccc(CNc2cc(-c3cccc(OC)c3)nc(OC)n2)cc1` [Example 43(k), (4-Methoxy-benzyl-[2-methoxy-6-(3-methoxy-phenyl)-pyrimidin-4-yl]-amine hydrochloride], 5.97; with `COc1cccc(-c2cc(NCCCc3ccccc3)nc(OC)n2)c1` [Example 43(l), [2-Methoxy-6-(3-methoxy-phenyl)-pyrimidin-4-yl]-(3-phenyl-propyl)-amine hydrochloride], 5.77. `COc1ccc(C[C@H](Nc2cc(-c3cccc(OC)c3)nc(OC)n2)C(=O)O)cc1` [Example 43(n), (2S)-2-[2-Methoxy-6-(3-methoxy-phenyl)-pyrimidin-4-ylamino]-3-(4-methoxy-phenyl)-propionic acid] showed a pIC50 of 6.26. With `COc1ccc(CCNc2cc(-c3nnc(C)o3)nc(OC)n2)cc1` [Example 44, [2-Methoxy-6-(5-methyl-[-1,3,4]oxadiazol-2-yl)-pyrimidin-4-yl]-[2-(4-methoxy-phenyl)-ethyl]-amine] the figure was 7.26; with `COc1ccc(CCNc2cc(-c3cnco3)nc(OC)n2)cc1` [Example 45, (2-Methoxy-6-oxazol-5-yl-pyrimidin-4-yl)-[2-(4-methoxy-phenyl)-ethyl]-amine], 8.11.

`COc1nc(NCCc2ccc3c(c2)OC(F)(F)O3)cc(-c2cccnc2)n1` [Example 46(b), [2-(2,2-difluoro-benzo[1,3]dioxol-5-yl)-ethyl]-(2-methoxy-6-pyridin-3-yl-pyrimidin-4-yl)-amine] had a pIC50 of 6.67. With `COc1nc(NCCc2ccc(OC(F)F)cc2)cc(-c2cccc(NC(C)=O)c2)n1` [Example 46(c), N-(3-{6-[2-(4-Difluoromethoxy-phenyl)-ethylamino]-2-methoxy-pyrimidin-4-yl}-phenyl)-acetamide hydrochloride] the figure was 8.40; with `COc1nc(NCCc2ccc(Cl)cc2Cl)cc(-c2cccc(C(C)(C)c3nnn[nH]3)c2)n1` [Example 47, hydrochloride], 9.40; with `COc1nc(NCCc2ccc(Cl)cc2Cl)cc(-c2cccc(C(C)C(=O)O)c2)n1` (centres unmarked) [Example 49(a), 2-(3-{6-[2-(2,4-Dichloro-phenyl)-ethylamino]-2-methoxy-pyrimidin-4-yl}-phenyl)-propionic acid hydrochloride], 9.00. With `CCOC(=O)OC(C)OC(=O)C(C)(C)c1cccc(-c2cc(NCCc3ccc(Cl)cc3Cl)nc(OC)n2)c1` (centres unmarked) [Example 50, 2-(3-{6-[2-(2,4-Dichloro-phenyl)-ethylamino]-2-methoxy-pyrimidin-4-yl}-phenyl)-2-methyl-propionic acid 1-ethoxycarbonyloxy-ethyl ester hydrochloride] the figure was 8.40; with `COc1nc(NCCc2ccc(C(F)(F)F)cc2F)cc(-c2ccc3[nH]cc(CC(=O)O)c3c2)n1` [Example 52, (5-{6-[2-(2-Fluoro-4-trifluoromethyl-phenyl)-ethylamino]-2-methoxy-pyrimidin-4-yl}-1H-indol-3-yl)-acetic acid], 9.40. `COc1ccc(CCNc2cc(-c3ccc4cn[nH]c4c3)nc(OC)n2)cc1` [Example 53(b), [6-(1H-Indazol-6-yl)-2-methoxy-pyrimidin-4-yl]-[2-(4-methoxy-phenyl)-ethyl]-amine]: the pIC50 is 9.02. This pIC50 is 0.38 log units lower than that of the molecule before. With `COc1nc(NCCc2c(F)cccc2Cl)cc(-c2cccc(COCC(=O)O)c2)n1` [Example 56, (3-{6-[2-(2-Chloro-6-fluoro-phenyl)-ethylamino]-2-methoxy-pyrimidin-4-yl}-benzyloxy)-acetic acid] the figure was 9.22. The molecule `COc1nc(NCCc2ccc(Cl)cc2Cl)cc(-c2cccc(C(=O)NCC(=O)O)c2)n1` [Example 59, (3-{6-[2-(2,4-Dichloro-phenyl)-ethylamino]-2-methoxy-pyrimidin-4-yl}-benzoylamino)-acetic acid] showed a pIC50 of 9.10. This pIC50 and that of the molecule before are within 0.2 log units of each other.

The molecule `CCNC(=O)Oc1cccc(-c2cc(NCCc3ccc(Cl)cc3Cl)nc(OC)n2)c1` [Example 60, Ethyl-carbamic acid 3-{6-[2-(2,4-dichloro-phenyl)-ethylamino]-2-methoxy-pyrimidin-4-yl}-phenyl ester] had a pIC50 of 9.30. `CNC(=O)c1ccc(-c2cc(NCCc3ccc(OC)cc3)nc(OC)n2)s1` [Example 62, 5-{2-Methoxy-6-[2-(4-methoxy-phenyl)-ethylamino]-pyrimidin-4-yl}-thiophene-2-carboxylic acid methylamide trifluoroacetate] showed a pIC50 of 9.52. `COCC(=O)NCCc1cccc(-c2cc(NCCc3ccc(C(F)(F)F)cc3F)nc(OC)n2)c1` [Example 64, N-[2-(3-{6-[2-(2-Fluoro-4-trifluoromethyl-phenyl)-ethylamino]-2-methoxy-pyrimidin-4-yl}-phenyl)-ethyl]-2-methoxy-acetamide] gave a pIC50 of 7.25. With `COc1nc(NCCc2ccc(C(F)(F)F)cc2F)cc(-c2cccc(CCNC(C)=O)c2)n1` [Example 65, N-[2-(3-{6-[2-(2-Fluoro-4-trifluoromethyl-phenyl)-ethylamino]-2-methoxy-pyrimidin-4-yl}-phenyl)-ethyl]-acetamide hydrochloride] the figure was 7.43. In turn, `COc1nc(NCC(F)(F)c2ccccc2)cc(-c2cccc(C(C)(C)C(=O)O)c2)n1` [Example 67, 2-{3-[6-(2,2-Difluoro-2-phenyl-ethylamino)-2-methoxy-pyrimidin-4-yl]-phenyl}-2-methyl-propionic acid] had a pIC50 of 7.42. The pIC50 values of the last two molecules are within 0.2 log units of each other. Under `COc1nc(NCCc2ccc(OC(F)(F)F)cc2)cc(-c2ccc(F)c(C(C)(C)C(=O)O)c2)n1` [Example 70, 2-(2-Fluoro-5-{2-methoxy-6-[2-(4-trifluoromethoxy-phenyl)-ethylamino]-pyrimidin-4-yl}-phenyl)-2-methyl-propionic acid] stands 6.71. For the molecule `COc1nc(NCc2ccsc2)cc(-c2cccc(C(C)(C)C(=O)O)c2)n1` [Example 71, 2-(3-{2-Methoxy-6-[(thiophen-3-ylmethyl)-amino]-pyrimidin-4-yl}-phenyl)-2-methyl-propionic acid], the pIC50 was 6.41. Under `COc1nc(NCCc2ccc(Cl)cc2Cl)cc(N2CCCC(C(=O)O)C2)n1` (centres unmarked) [Example 73, 1-{6-[2-(2,4-Dichloro-phenyl)-ethylamino]-2-methoxy-pyrimidin-4-yl}-piperidine-3-carboxylic acid] stands 9.10; under `COc1nc(NCCc2ccc(Cl)cc2Cl)cc(-c2cccc(C3(C(=O)O)CCCC3)c2)n1` [Example 74, 1-(3-{6-[2-(2,4-Dichloro-phenyl)-ethylamino]-2-methoxy-pyrimidin-4-yl}-phenyl)-cyclopentanecarboxylic acid hydrochloride], 9.30. Under `COc1nc(NCCc2ccc(Cl)cc2Cl)cc(-c2cccc(C(=O)OCCN3CCN(C)CC3)c2)n1` [Example 76, 3-{6-[2-(2,4-Dichloro-phenyl)-ethylamino]-2-methoxy-pyrimidin-4-yl}-benzoic acid 2-(4-methyl-piperazin-1-yl)-ethyl ester] stands 8.15; under `CCOC(=O)c1cccc(-c2cc(NCCc3ccc(Cl)cc3Cl)nc(OC)n2)c1` [Example 77, 3-{6-[2-(2,4-Dichloro-phenyl)-ethylamino]-2-methoxy-pyrimidin-4-yl}-benzoic acid ethyl ester], 6.83; under `COc1nc(NCCc2ccc(Cl)cc2Cl)cc(-c2cccc(C3(C(=O)O)CCOCC3)c2)n1` [Example 80(a), 4-(3-{6-[2-(2,4-Dichloro-phenyl)-ethylamino]-2-methoxy-pyrimidin-4-yl}-phenyl)-tetrahydro-pyran-4-carboxylic acid], 10.30. Under `COc1nc(NCCc2ccc(Cl)cc2Cl)cc(-c2cccc(C3(C(=O)NS(C)(=O)=O)CCOCC3)c2)n1` [Example 80(b), N-[4-(3-{6-[2-(2,4-Dichloro-phenyl)-ethylamino]-2-methoxy-pyrimidin-4-yl}-phenyl)-tetrahydro-pyran-4-carbonyl]-methanesulfonamide] stands above 9.00; under `CCOC(=O)C1(c2cccc(-c3cc(NCCc4ccc(Cl)cc4Cl)nc(OC)n3)c2)CCOCC1` [Example 80(c), 4-(3-{6-[2-(2,4-Dichloro-phenyl)-ethylamino]-2-methoxy-pyrimidin-4-yl}-phenyl)-tetrahydro-pyran-4-carboxylic acid ethyl ester], 6.65; under `COc1nc(NCCc2ccc(Cl)cc2Cl)cc(-c2cccc(C(F)(F)C(=O)O)c2)n1` [Example 81(a), (3-{6-[2-(2,4-Dichloro-phenyl)-ethylamino]-2-methoxy-pyrimidin-4-yl}-phenyl)-difluoro-acetic acid], 10.70. In turn, `CCS(=O)(=O)NC(=O)C(F)(F)c1cccc(-c2cc(NCCc3ccc(Cl)cc3Cl)nc(OC)n2)c1` [Example 81(b), Ethanesulfonic acid [2-(3-{6-[2-(2,4-dichloro-phenyl)-ethylamino]-2-methoxy-pyrimidin-4-yl}-phenyl)-2,2-difluoro-acetyl]-amide] had a pIC50 of 10.00.
